The results in this text go back to patent publication US3932384A, “Dibenzazecines” (Shionogi & Co., Ltd., priority 1972, dated 1976).

Test system in one data set: not listed separately
As to the kind of experiment: Acute toxicity (mortality, LD50) in mice. The note with it: mouse, in vivo; DS-mice; mortality during 72 hours after administration; Bliss' method. How it is done: Ten DS-mice (15 to 17 g body weight, male and female) in every group are used in the test at each dose level. Each assay compound is tested in 4 to 5 doses. The mortality is counted during a period of 72 hours after the administration of the test compound. The LD50 is calculated by the Bliss' method.
Take `Cc1c(N(C)C)c(=O)n(-c2ccccc2)n1C` [Aminopyrine, reference compound]: the LD50 at 72 h came out at 335 mg/kg.

With `CN1CCc2ccc(O)cc2CCc2ccc(O)c(O)c2C1` [Compound 1], the LD50 at 72 h was 50 to 100 mg/kg.

`COc1ccc2c(c1OC)CN(C)CCc1ccc(O)cc1CC2` [Compound 2, 3,4-Dimethoxy-11-hydroxy-6-methyl-5,6,7,8.13,14-hexahydrodibenz[c,g]azecine] showed an LD50 at 72 h of 54.9 mg/kg.

For the compound `COc1ccc2c(c1OC)CN(C)CCc1cc(O)ccc1CC2` [Compound 3, 3,4-Dimethoxy-10-hydroxy-6-methyl-5,6,7,8,13,14-hexahydrodibenz[c,g]azecine], the LD50 at 72 h came out at 231 mg/kg.

Take `COc1ccc2c(c1OC)CN(C)CCc1cc(CO)c(O)cc1CC2` [Compound 4, 3,4-dimethoxy-11-hydroxy-10-hydroxymethyl-6-methyl-5,6,7,8,13,14-hexahydrodibenz[c,g]azecin]: the LD50 at 72 h is > 500 mg/kg.

Compound `CN1CCc2ccc(O)cc2CCc2cccc(O)c2C1.[O-][Cl+3]([O-])([O-])O` [Compound 5, 4,11-Dihydroxy-6-methyl-5,6,7,8,13,14-hexahydrodibenz[c,g]azecine perchlorate] gave an LD50 at 72 h of 300 mg/kg.

With `Br.CN1CCc2cc(O)ccc2CCc2ccc(O)c(O)c2C1` [Compound 6, 6-Methyl-3,4,10-trihydroxy-5,6,7,8,13,14-hexahydrodibenz[c,g]azecine hydrobromide], the LD50 at 72 h was determined as 300 mg/kg.

Take `COc1ccc2c(c1OC)CNCCc1cc(O)ccc1CC2` [Compound 7, 3,4-dimethoxy-10-hydroxy-5,6,7,8,13,14-hexahydrodibenz[c,g]azecine]: the LD50 at 72 h was 500 mg/kg.

In the next data set the test system is DS-mice. As to the kind of experiment: Analgesic activity (Haffner method), tail-root pinch in mice. In kind it is in vivo. Conditions: Mus musculus, tail-root pinch with forceps, no withdrawal response within 3 seconds, Bliss' method, read-out: Analgesic action, Haffner (ED50). How it is done: 2. Analgesic activity (Haffner method);
The tail-roots of DS-mice (15 to 17 g body weight, male and female) are pinched with a pair of forceps. Pain responses, such as biting, head turning and vocalization are observed. All of the control animals respond to the noxious stimulus with in a period of one second. […] The ED50 is calculated by the Bliss' method [Ann. Appl. Biol., 22, 134; 307 (1935); Quat. J. Pharmacol., 11, 192 (1938)].
In the case of `Cc1c(N(C)C)c(=O)n(-c2ccccc2)n1C` [Aminopyrine, reference compound], the ED50 was 138 mg/kg.

Regarding `COc1ccc2c(c1OC)CN(C)CCc1ccc(O)cc1CC2` [Compound 2, 3,4-Dimethoxy-11-hydroxy-6-methyl-5,6,7,8.13,14-hexahydrodibenz[c,g]azecine], the ED50 is 58 mg/kg.

In the case of `COc1ccc2c(c1OC)CN(C)CCc1cc(O)ccc1CC2` [Compound 3, 3,4-Dimethoxy-10-hydroxy-6-methyl-5,6,7,8,13,14-hexahydrodibenz[c,g]azecine], the ED50 is 37.9 mg/kg.

Consider `COc1ccc2c(c1OC)CNCCc1cc(O)ccc1CC2` [Compound 7, 3,4-dimethoxy-10-hydroxy-5,6,7,8,13,14-hexahydrodibenz[c,g]azecine], for which the ED50 turned out to be 250 mg/kg.

In another data set the test system is DS-mice. Kind of data set: Analgesic activity (Writhing method), phenylquinone-induced writhing in mice. The class given is in vivo. Conditions: Mus musculus, ip, 0.25 h, phenylquinone i.p. 0.2 mg/10 g, 15 minutes, up-and-down method, read-out: Analgesic action, Writhing (ED50). As to the method: 1. Analgesic activity (Writhing method);
DS-mice (15 to 17 g body weight, male and female) are treated with an intraperitoneal injection of 0.2 mg/10 g of 0.02 % phenylquinone solution as a writhing inducer and kept in an individual observation cage for 15 minutes after the administration of phenylquinone. […] The ED50 is calculated by the up-and-down method of Brownlee et al. [Fed.
On to `Cc1c(N(C)C)c(=O)n(-c2ccccc2)n1C` [Aminopyrine, reference compound], for which the ED50 is 44 mg/kg.

In the case of `CN1CCc2ccc(O)cc2CCc2ccc(O)c(O)c2C1` [Compound 1], the ED50 came out at 26 mg/kg.

On to `COc1ccc2c(c1OC)CN(C)CCc1ccc(O)cc1CC2` [Compound 2, 3,4-Dimethoxy-11-hydroxy-6-methyl-5,6,7,8.13,14-hexahydrodibenz[c,g]azecine], for which the ED50 came to 23.2 mg/kg.

With `COc1ccc2c(c1OC)CN(C)CCc1cc(O)ccc1CC2` [Compound 3, 3,4-Dimethoxy-10-hydroxy-6-methyl-5,6,7,8,13,14-hexahydrodibenz[c,g]azecine], the ED50 was found to be 22.3 mg/kg.

With `COc1ccc2c(c1OC)CN(C)CCc1cc(CO)c(O)cc1CC2` [Compound 4, 3,4-dimethoxy-11-hydroxy-10-hydroxymethyl-6-methyl-5,6,7,8,13,14-hexahydrodibenz[c,g]azecin], the ED50 was 45 mg/kg.

With `CN1CCc2ccc(O)cc2CCc2cccc(O)c2C1.[O-][Cl+3]([O-])([O-])O` [Compound 5, 4,11-Dihydroxy-6-methyl-5,6,7,8,13,14-hexahydrodibenz[c,g]azecine perchlorate], the ED50 turned out to be 50 mg/kg.

`Br.CN1CCc2cc(O)ccc2CCc2ccc(O)c(O)c2C1` [Compound 6, 6-Methyl-3,4,10-trihydroxy-5,6,7,8,13,14-hexahydrodibenz[c,g]azecine hydrobromide]: the ED50 came out at 75 mg/kg.

For `COc1ccc2c(c1OC)CNCCc1cc(O)ccc1CC2` [Compound 7, 3,4-dimethoxy-10-hydroxy-5,6,7,8,13,14-hexahydrodibenz[c,g]azecine], the ED50 amounted to 26.5 mg/kg.
